According to patent US8338465B2, “Cyclic carboxylic acid rhodanine derivatives for the treatment and prevention of tuberculosis” (priority 2006, dated 2012):
Counter-ions that a name gives are not always drawn.

Target: T1, dihydrolipoamide acyltransferase (DlaT) (Mycobacterium tuberculosis, UniProt P9WIS7)
T1 sequence (P9WIS7 1-553): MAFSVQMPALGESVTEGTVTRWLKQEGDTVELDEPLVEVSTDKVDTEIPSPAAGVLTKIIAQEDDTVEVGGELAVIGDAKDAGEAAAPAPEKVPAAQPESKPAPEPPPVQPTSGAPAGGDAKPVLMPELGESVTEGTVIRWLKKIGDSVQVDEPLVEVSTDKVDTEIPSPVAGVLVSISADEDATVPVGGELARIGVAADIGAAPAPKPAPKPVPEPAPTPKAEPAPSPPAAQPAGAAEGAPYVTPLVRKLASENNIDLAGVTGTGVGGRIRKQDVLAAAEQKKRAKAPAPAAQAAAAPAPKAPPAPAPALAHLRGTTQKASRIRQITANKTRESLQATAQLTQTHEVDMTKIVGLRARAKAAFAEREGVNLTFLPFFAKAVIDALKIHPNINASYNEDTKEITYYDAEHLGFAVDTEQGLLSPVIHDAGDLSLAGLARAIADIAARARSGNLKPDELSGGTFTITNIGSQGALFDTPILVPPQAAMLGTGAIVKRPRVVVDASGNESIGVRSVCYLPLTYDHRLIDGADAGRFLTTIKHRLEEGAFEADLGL
Test: DlaT inhibition (Dlat IC50); DTNB peroxidase assay with Lpd, DlaT and AhpD
Type: biochemical
Settings: Dlat IC50 category

Row | SMILES | IC50 [µM]
1 | O=C(O)c1cccc(N2C(=O)C(=Cc3ccc(-c4cc5ccccc5s4)o3)SC2=S)c1 [Compound I1] | < 10

Same assay, conditions: Dlat IC50 category, Table 10, Compounds J1 to J3

Row | SMILES | IC50 [µM]
2 | O=C(O)C(Cc1ccccc1)N1C(=O)C(=Cc2ccc(-c3cc4ccccc4s3)o2)SC1=S (stereo not shown) [Compound J3] | < 10

Same assay, conditions: Dlat IC50 category, Table 13, Compounds M1 to M4

Row | SMILES | IC50 [µM]
3 | O=C(O)c1cncc(N2C(=O)C(=Cc3ccc(-c4ccccc4Cl)o3)SC2=S)c1 [Compound M1] | < 10
4 | O=C(O)c1cncc(N2C(=O)C(=Cc3ccc(-c4cccc(C(F)(F)F)c4)o3)SC2=S)c1 [Compound M2] | < 10
5 | CC(C)(C)c1ccc(-c2ccc(C=C3SC(=S)N(c4cncc(C(=O)O)c4)C3=O)o2)cc1 [Compound M3] | < 10
6 | N#Cc1c(F)cccc1-c1ccc(C=C2SC(=S)N(c3cncc(C(=O)O)c3)C2=O)o1 [Compound M4] | 11 to 40

Same assay, conditions: Dlat IC50 category, Table 14, Compounds N1 to N3

Row | SMILES | IC50 [µM]
7 | O=C(O)c1cccc(N2C(=O)C(=Cc3ccc(Cc4ccccc4Cl)o3)SC2=S)c1 [Compound N1] | < 10
8 | COc1ccc(C(=O)O)cc1N1C(=O)C(=Cc2ccc(Cc3ccccc3Cl)o2)SC1=S [Compound N2] | 11 to 40
9 | O=C(O)c1cc(N2C(=O)C(=Cc3ccc(Cc4ccccc4Cl)o3)SC2=S)ccc1O [Compound N3] | < 10

Same assay, conditions: Dlat IC50 category, Table 16, Compounds P1 to P2

Row | SMILES | IC50 [µM]
10 | O=C(O)C(c1ccccc1)N1C(=O)C(=Cc2cccc(-c3ccc(Cl)s3)n2)SC1=S (stereo not shown) [Compound P1] | < 10
11 | O=C(O)CCN1C(=O)C(=Cc2cccc(-c3ccc(Cl)s3)n2)SC1=S [Compound P2] | 11 to 40

Same assay, conditions: Dlat IC50 category, Table 17, Compounds Q1 to Q9

Row | SMILES | IC50 [µM]
12 | O=C(O)c1cccc(N2C(=O)C(=Cc3ccc(-c4cncnc4)o3)SC2=S)c1 [Compound Q1] | 11 to 40
13 | O=C(O)c1ccc(N2C(=O)C(=Cc3ccc(-c4cncnc4)o3)SC2=S)cc1 [Compound Q2] | 11 to 40
14 | NS(=O)(=O)c1ccc(N2C(=O)C(=Cc3ccc(-c4cncnc4)o3)SC2=S)cc1 [Compound Q3] | 11 to 40
15 | O=C(O)c1cccc(N2C(=O)C(=Cc3ccc(-c4ccncc4)o3)SC2=S)c1 [Compound Q4] | 11 to 40
16 | O=C(O)c1cc(N2C(=O)C(=Cc3ccc(-c4ccsc4Cl)o3)SC2=S)ccc1O [Compound Q5] | 11 to 40
17 | O=C(O)c1cccc(N2C(=O)C(=Cc3ccc(-c4ccc5nonc5c4)o3)SC2=S)c1 [Compound Q9] | 11 to 40

Same assay, conditions: Dlat IC50 category, Table 20, Prodrugs (Compounds T1 to T8)

Row | SMILES | IC50 [µM]
18 | O=C(OCCCCO)c1cccc(N2C(=O)C(=Cc3ccc(-c4ccccc4Cl)o3)SC2=S)c1 [Compound T1, 3-{5-[1-[5-(2-Chloro-phenyl)-furan-2-yl]-methylidene]-4-oxo-2-thioxo-thiazolidin-3-yl}-benzoic acid 4-hydroxy-butyl ester] | 41 to 80
19 | O=C(OCCCO)c1cccc(N2C(=O)C(=Cc3ccc(-c4ccccc4Cl)o3)SC2=S)c1 [Compound T2, 3-{5-[1-[5-(2-Chloro-phenyl)-furan-2-yl]-methylidene]-4-oxo-2-thioxo-thiazolidin-3-yl}-benzoic acid 3-hydroxy-propyl ester] | 41 to 80
20 | O=C(OCCCCOP(=O)(O)O)c1cccc(N2C(=O)C(=Cc3ccc(-c4ccccc4Cl)o3)SC2=S)c1 [Compound T3, 3-{5-[1-[5-(2-Chloro-phenyl)-furan-2-yl]-methylidene]-4-oxo-2-thioxo-thiazolidin-3-yl}-benzoic acid 4-phosphonooxy-butyl ester] | 41 to 80
21 | O=C(OCC(CO)CO)c1cccc(N2C(=O)C(=Cc3ccc(-c4ccccc4Cl)o3)SC2=S)c1 [Compound T4, 3-{5-[1-[5-(2-Chloro-phenyl)-furan-2-yl]-methylidene]-4-oxo-2-thioxo-thiazolidin-3-yl}-benzoic acid 3-hydroxy-2-hydroxymethyl-propyl ester] | 11 to 40
22 | O=C(NC(CO)(CO)CO)c1cccc(N2C(=O)C(=Cc3ccc(-c4ccccc4Cl)o3)SC2=S)c1 [Compound T6, 3-{5-[1-[5-(2-Chloro-phenyl)-furan-2-yl]-methylidene]-4-oxo-2-thioxo-thiazolidin-3-yl}-N-(2-hydroxy-1,1-bis-hydroxymethyl-ethyl)-benzamide] | 11 to 40
23 | O=C(NC(CO)CO)c1cccc(N2C(=O)C(=Cc3ccc(-c4ccccc4Cl)o3)SC2=S)c1 [Compound T7, 3-{5-[1-[5-(2-Chloro-phenyl)-furan-2-yl]-methylidene]-4-oxo-2-thioxo-thiazolidin-3-yl}-N-(2-hydroxy-1-hydroxymethyl-ethyl)-benzamide] | 11 to 40
24 | O=C(OCCN(CCO)CCO)c1cccc(N2C(=O)C(=Cc3ccc(-c4ccccc4Cl)o3)SC2=S)c1 [Compound T8, 3-{5-[1-[5-(2-Chloro-phenyl)-furan-2-yl]-methylidene]-4-oxo-2-thioxo-thiazolidin-3-yl}-benzoic acid 2-[bis-(2-hydroxy-ethyl)-amino]-ethyl ester] | 41 to 80

Same assay, conditions: Dlat IC50 category, Table 21, Prodrugs (Examples U1 to U10)

Row | SMILES | IC50 [µM]
25 | CNS(=O)(=O)c1ccc(-c2ccc(C=C3SC(=S)N(C4CCCC(C(=O)OCCCO)C4)C3=O)o2)cc1 (stereo not shown) [Compound U2, 3-{5-[1-[5-(4-Methylsulfamoyl-phenyl)-furan-2-yl]-methylidene]-4-oxo-2-thioxo-thiazolidin-3-yl}-cyclohexanecarboxylic acid 3-hydroxy-propyl ester] | 11 to 40
26 | CSc1ccc(-c2ccc(C=C3SC(=S)N(C4CCCC(C(=O)OCCO)C4)C3=O)o2)cc1 (stereo not shown) [Compound U3, 3-{5-[1-[5-(4-Methylsulfanyl-phenyl)-furan-2-yl]-methylidene]-4-oxo-2-thioxo-thiazolidin-3-yl}-cyclohexanecarboxylic acid 2-hydroxy-ethyl ester] | 41 to 80
27 | CSc1ccc(-c2ccc(C=C3SC(=S)N(C4CCCC(C(=O)OCCCCO)C4)C3=O)o2)cc1 (stereo not shown) [Compound U4, 3-{5-[1-[5-(4-Methylsulfanyl-phenyl)-furan-2-yl]-methylidene]-4-oxo-2-thioxo-thiazolidin-3-yl}-cyclohexanecarboxylic acid 4-hydroxy-butyl ester] | 41 to 80
28 | CSc1ccc(-c2ccc(C=C3SC(=S)N(C4CCCC(C(=O)OCC(CO)CO)C4)C3=O)o2)cc1 (stereo not shown) [Compound U5, 3-{5-[1-[5-(4-Methylsulfanyl-phenyl)-furan-2-yl]-methylidene]-4-oxo-2-thioxo-thiazolidin-3-yl}-cyclohexanecarboxylic acid 3-hydroxy-2-hydroxymethyl-propyl ester] | 11 to 40
29 | CSc1ccc(-c2ccc(C=C3SC(=S)N(C4CCCC(C(=O)OCC(C)(CO)CO)C4)C3=O)o2)cc1 (stereo not shown) [Compound U6, 3-{5-[1-[5-(4-Methylsulfanyl-phenyl)-furan-2-yl]-methylidene]-4-oxo-2-thioxo-thiazolidin-3-yl}-cyclohexanecarboxylic acid 3-hydroxy-2-hydroxymethyl-2-methyl-propyl ester] | 41 to 80
30 | CSc1ccc(-c2ccc(C=C3SC(=S)N(C4CCCC(C(=O)NC(CO)(CO)CO)C4)C3=O)o2)cc1 (stereo not shown) [Compound U7, 3-{5-[1-[5-(4-Methylsulfanyl-phenyl)-furan-2-yl]-methylidene]-4-oxo-2-thioxo-thiazolidin-3-yl}-cyclohexanecarboxylic acid (2-hydroxy-1,1-bis-hydroxymethyl-ethyl)-amide] | 41 to 80
31 | CSc1ccc(-c2ccc(C=C3SC(=S)N(C4CCCC(C(=O)NC(CO)CO)C4)C3=O)o2)cc1 (stereo not shown) [Compound U8, 3-{5-[1-[5-(4-Methylsulfanyl-phenyl)-furan-2-yl]-methylidene]-4-oxo-2-thioxo-thiazolidin-3-yl}-cyclohexanecarboxylic acid (2-hydroxy-1-hydroxymethyl-ethyl)-amide] | 41 to 80
32 | CS(=O)(=O)c1ccc(-c2ccc(C=C3SC(=S)N(C4CCCC(C(=O)OCCCO)C4)C3=O)o2)cc1 (stereo not shown) [Compound U9, 3-{5-[1-[5-(4-Methanesulfonyl-phenyl)-furan-2-yl]-methylidene]-4-oxo-2-thioxo-thiazolidin-3-yl}-cyclohexanecarboxylic acid 3-hydroxy-propyl ester] | 41 to 80
33 | CSc1ccc(-c2ccc(C=C3SC(=S)N(C4CCCC(C(=O)OCCN(CCO)CCO)C4)C3=O)o2)cc1 (stereo not shown) [Compound U10, 3-{5-[1-[5-(4-Methylsulfanyl-phenyl)-furan-2-yl]-methylidene]-4-oxo-2-thioxo-thiazolidin-3-yl}-cyclohexanecarboxylic acid 2-[bis-(2-hydroxy-ethyl)-amino]-ethyl ester hydrochloride] | < 10

Same assay, conditions: Table 20, Prodrugs (Compounds T1 to T8); read-out: Dlat IC50 category

Row | SMILES | IC50 [µM]
34 | CC(CO)(CO)COC(=O)c1cccc(N2C(=O)C(=Cc3ccc(-c4ccccc4Cl)o3)SC2=S)c1 [Compound T5, 3-{5-[1-[5-(2-Chloro-phenyl)-furan-2-yl]-methylidene]-4-oxo-2-thioxo-thiazolidin-3-yl}-benzoic acid 3-hydroxy-2-hydroxymethyl-2-methyl propyl ester] | 11 to 40
